Measured values: patent publication US6468987B1, “Nutritional product for a person having ulcerative colitis” (Abbott Laboratories, priority 1994, dated 2002)
Marks after values point to notes of the source that are not given here.

Experiments:
[1] = tested on: active ulcerative colitis; conditions: dietary supplementation; cited from earlier work
[2] = tested on: distal colitis induced by peptidoglycan/polysaccharide (PG/PS); assay: PG/PS-induced acute and chronic distal colitis in rats; assay type: in vivo, Female Lewis rats
Protocol: For these reasons, a model of acute and chronic distal colitis in rats was developed based upon a previously published method in which purified bacterial cell wall polymers (derived from Group A streptococci) are injected intramurally into the distal colon of genetically-susceptible rats. Sartor et al., “Granulomatus Entercolitis Induced by Purified Bacterial Cell Wall Fragments”, GASTROENTEROLOGY, Vol. 89, pages 587-595 (1985). This model produces an acute and chronic inflammation characterized by the infiltration of large numbers of inflammatory cells, enhanced mucosal permeability, interstitial fibrosis, and mucosal thickening as well as the extraintestinal manifestations of arthritis, hepatic and splenic granulomas. Unlike most models of colitis, the inflammation induced in this model promoting mucosal and submucosal injury rather than the injury causing the inflammation.
In Experiment 2 the objectives were: (a) to determine whether this model of colitis responds to sulfasalazine (SAZ) and (b) to assess the effects of specially formulated enteral diets on the injury and inflammation observed in the colon, liver and spleen.
Female Lewis rats (150-175 g) were maintained in a controlled temperature and light-dark cycle (12 hours:12 hours) and housed in wire-mesh bottomed cages and given water and standard laboratory rat chow ad libitum. A total of 48 rats were divided into 6 groups of 8 rats each consisting of a sham (rats receiving Diet #1 {base diet} with no peptidoglycan/polysaccharide {PG/PS} injection) control group, a chow group and 4 groups of rats placed on 4 different polymeric diets (Table 6). Rats received either chow or polymeric diets (320 kcals/kg/day or 60 mL of liquid diet/day) for 7 days preceding induction of colitis. Distal colitis was induced by a modification of the method of Sartor et al in which multiple sites (8-9) along the distal colon were injected intramurally with 60 ul/site to deliver a dose of peptidoglycan/polysaccharide (PG/PS) of 12.5 ug/g body weight. The albumin (sham) control group received the same number of injections of human serum albumin into the distal colon.
Total dietary intake and body weights of the control and liquid diet groups were recorded for each 24 hour period during the course of the 4 week experiment (1 week prior to the induction of colitis and 3 weeks following PG/PS or albumin injection).
To assess the effects of SAZ in this model, female Lewis rats were orally administered SAZ immediately following the induction of colitis. Rats were given chow ad libitum for the duration of the four week study period. Similar measurements were assessed as described below.
All rats receiving nutritional therapy or SAZ were euthanized with an overdose of pentobarbital and the distal colon and cecum were excised and opened longitudinally. The length and weight of the perfused segment were recorded and the tissue divided longitudinally into three strips for wet-to-dry ratios, histology and myeloperoxidase (MPO) determinations. Colonic MPO activity was determined in which 3,3′ 5,5′ tetramethylbenzidine was used as the electron donating substrate and hexadecyltrimethylammonium hydroxide was used as the detergent. Spleen and liver weights were recorded. Circulating levels of nitrate and nitrite were also quantified using the Griess reagent and used as indices of immune system activation (i.e. activation of the reticuloendothelial system {nitric oxide synthase}). The studies were analyzed as a completely randomized design. Treatment differences were separated using an F-protected least significant difference (LSD) method. In both studies additional chow fed control animals that were treated under laboratory conditions described above were incorporated in the statistical analysis.

[3] = SAZ orally from induction of colitis, chow fed PG/PS rats, least square means
[4] = oral SAZ vs PG/PS treated animals and sham control
[5] = oral SAZ vs chow fed group receiving PG/PS

Compound	eicosanoid levels from rectal dialysate fluid [1]	COLON WT [2, 3]	Liver wt [2, 3]	MPO ACTIVITY [2, 3]	Spleen wt [2, 3]	liver weight, in words [2, 4]	spleen weight, in words [2, 4]	colon weight, in words [2, 5]	increases in MPO activity, in words [2, 5]	histological inspection of the SAZ-treated tissue ([2]; oral SAZ, PG/PS colitis)
vitamin E	not to promote changes	–	–	–	–	–	–	–	–	–
O=C(O)c1cc(/N=N/c2ccc(S(=O)(=O)Nc3ccccn3)cc2)ccc1O [SAZ, sulfasalazine]	–	.021 ± .004^a,b g dry wt/cm	34.0 ± 3.6^b mg/g bw	1.40 ± 2.9^b units/cm colon	2.92 ± 1.3^b mg/g bw	significantly lower than the PG/PS treated animals and comparable to the sham control	significantly lower than the PG/PS treated animals and comparable to the sham control	tended to reduce	significantly attenuated	inhibition of leukocyte infiltration and fibrosis
